# Measurements taken from US4853221A, “Method for treating non-small cell lung cancer, head and neck cancers and breast cancer” (Warner-Lambert Company, priority 1987, dated 1989).
# Experiments:
# L5178Y = assay: Inhibition of L5178Y cell growth in vitro; format: cell-based, murine
# Procedure: Two leukemia cell lines (L1210 and L5178Y) and two solid tumor cell lines (Sarcoma 180 and Walker 256) were used in these studies.
# Logarithmically growing L1210 cells (approximately 3×10^5 cells/ml) were diluted with Fischer's medium (containing 10% horse serum) to an approximate concentration of 5×10^4 cells/ml. Cells were planted in duplicate into 15 ml culture tubes containing either no drug or various amounts of drug, and incubated for 48 hours at 37° C. before being counted.
# Trimetrexate was also evaluated in a similar manner side-by-side with methotrexate for its effect on the growth of three additional murine cell lines (L5178Y, Sarcoma-180, and Walkler-256) and three human cell lines (acute myelogenous leukemia K-562, T-cell 8402, and B-cell 8392), propagated in vitro.
# Lung tumor = assay: Human tumor cloning system, lung tumors; format: cell-based; conditions: one hour, 8 specimens
# From the text: The activity of trimetrexate was compared with that of methotrexate in tests with a human tumor cloning system (Latham, et al., Proc. Am. Assoc. Cancer Res., 24: 278 (1983)). The data from these tests appear in Table III were the activities are expressed as the numbers of tumors with 50% or greater reduction in tumor colony forming units after one hour exposure to the drug.
# L1210 = assay: Antitumor activity against L1210 leukemia in mice; format: in vivo, mouse; conditions: for Life Span % ILS / Life Span % T/C: ip daily, Days 1-9
# Procedure: (§1) The growth inhibition properties of 5-methyl-6-[[(3,4,5-trimethoxyphenyl)amino]methyl]-2,4-quinazolinediamine (trimetrexate) against several transplanted murine tumors were evaluated employing the antitumor screening program of the Drug Evaluation Branch of the National Cancer Institute. The protocols for these tests is described in Cancer Chemotherapy Reports, 3: 1-103 (1972). The dosing schedules are results from these tests appear in Table IV.
# (§2) In the L1210, P388, and B-16 melanoma models, results are expressed as a percentage of median control survival time. Percentage of increase in survival time and/or cures (30 day survivors) were the parameters used to measure the effectiveness of the agents. An initial median survival value for treated over control percentage (% T/C) equal to or greater than 125% was considered indicative of activity. For confirmatory activity, two multidose assays must show % T/C values equal to or greater than 150%.
# (§3) Percent increase in median life span (% ILS) values appearing in the tables were calculated from the formula; 100×(median life span in days of treated mice minus median life span in days of untreated mice) divided by median life span in days of untreated control mice. That is, % ILS=[100×(T-C)]/C. % T/C and %ILS are directly interconvertible by the formula % ILS=% T/C -100.
# (§4) L1210 Leukemic Cells (10^5 /mouse) and P388 leukemic cells (10^6 /mouse)were in the ascites form and were transferred to BD2F1 or CD2F1 mice by intraperitoneal (ip) injection of 0.1 ml of cells taken from animals bearing 6- to 7-day old tumors. Leukemic cells were injected ip one day prior to the start of treatment.
# (§5) In all of the mouse tumor studies described above, routine controls consisted of matching ten normal mice (with no tumors) to each tumor-bearing treatment group and injecting them with the same drug at the same dosages, schedules, days of administration, and drug route as the tumor-bearing mice. In this way, drug-induced toxicity (lethality and weight loss) could be clearly separated from the effects of the drug on the tumors.
# P388 = assay: Antitumor activity against P388 leukemia in mice; format: in vivo, mouse; conditions: for Life Span % ILS / Life Span % T/C: optimal dose 40 mg/kg (dose range 80-2.5), ip daily, Days 1-9
# Procedure: as §1, §2, §3, §4, §5
# Colon 26 = assay: Antitumor activity against colon adenocarcinoma 26 in mice; format: in vivo, mouse; conditions: for Life Span % ILS / Life Span % T/C: ip every 4 days, Days 1-5
# Procedure: as §1, §3
# Colon adenocarcinoma Nos. 26 and 38. Colon adenocarcinoma 26 was propagated in Balb/cj mice for 12 to 15 days. After this time, 0.5 ml of a 1% tumor brei, prepared from several excised subcutaneously passaged tumors, was implanted intraperitoneally into CDF1 mice. Animals were treated with drug ip on Days 1 and 5 following tumor implantation. The median survival time of the treated animals was determined and expressed as a percentage of the median survival time of untreated control animals.
# as §5
# P388 murine leukemia = assay: Schedule dependence against P388 murine leukemia; format: in vivo, mouse
# Procedure: In the L1210, P388, and B-16 melanoma models, results are expressed as a percentage of median control survival time. Percentage of increase in survival time and/or cures (30 day survivors) were the parameters used to measure the effectiveness of the agents.
# as §3, §4
# The dose schedule dependence of trimetrexate was tested against transplanted P388 leukemia using the protocol outlined above.
# [1] = system: non-small cell lung cancer; assay: Phase I clinical trials, non-small cell lung cancer; format: in vivo, human; conditions: single agent
# Procedure: (§6) Several Phase I clinical trials employing trimetrexate in human patients were carried out. In one study, 36 patients were treated with trimetrexate as a single agent at daily doses of 0.5 mg/m^2 /day to 12 mg/m^2 /day administered intravenously for five days.
# (§7) In additional Phase I clinical studies, patients were administered trimetrexate with single intravenous doses ranging between 5 and 450 mg/m^2 and with weekly doses of slightly greater than 100 mg/m^2.
# cancer of the pancreas = assay: Phase I clinical trials, cancer of the pancreas; format: in vivo, human; conditions: single agent
# Procedure: as §6, §7
# salivary gland cancer = assay: Phase I clinical trials, salivary gland cancer; format: in vivo, human; conditions: single agent
# Procedure: as §6, §7
# [2] = optimal dose 20 mg/kg (dose range 80-5)
# [3] = optimal dose 80 mg/kg (dose range 80-5)
# [4] = optimal dose 30 mg/kg (dose range 120-3.75)
# [5] = optimal dose 60 mg/kg (dose range 120-3.75)
# [6] = 13 mg/kg, every 3 hours, daily, Days 1, 5, and 9
# [7] = 20 mg/kg, every 3 hours, daily, Days 1, 5, and 9
# [8] = 30 mg/kg, every 3 hours, daily, Days 1, 5, and 9
# [9] = 45 mg/kg, every 3 hours, daily, Days 1, 5, and 9
structure (smiles),measurement,setting,value
"COc1cc(NCc2ccc3nc(N)nc(N)c3c2C)cc(OC)c1OC [Trimetrexate, 5-methyl-6-[[(3,4,5-trimethoxyphenyl)amino]methyl]-2,4-quinazolinediamine]",IC50,"L5178Y; Mus musculus, 48 h, Murine L5178Y, read-out: ED50 (the source's name)",2 nM
same,potency relative to methotrexate,L5178Y; on a molar basis,only slightly more effective on a molar basis
same,Number of Tumors with 50% or Greater Decrease in Tumor Colony Forming Units,Lung tumor; trimetrexate 0.1 μg/ml,1
same,Number of Tumors with 50% or Greater Decrease in Tumor Colony Forming Units,Lung tumor; trimetrexate 1.0 μg/ml,1
same,antitumor activity,"L1210; mouse, in vivo",good activity
same,Life Span % ILS,L1210; [2],72%
same,Life Span % T/C,L1210; [2],172%
same,Life Span % ILS,L1210; [3],96%
same,Life Span % T/C,L1210; [3],196%
same,antitumor activity,"P388; mouse, in vivo",good activity
same,Life Span % ILS,P388; first line,143%
same,Life Span % T/C,P388; first line,243%
same,Life Span % ILS,P388; second line,142%
same,Life Span % T/C,P388; second line,242%
same,antitumor activity,"Colon 26; mouse, in vivo",good activity
same,Life Span % ILS,Colon 26; [4],56%
same,Life Span % T/C,Colon 26; [4],156%
same,Life Span % ILS,Colon 26; [5],115%
same,Life Span % T/C,Colon 26; [5],215%
same,% T/C,P388 murine leukemia; [6],185%
same,Weight Change,P388 murine leukemia; [6],1.0 Grams
same,% T/C,P388 murine leukemia; [7],194%
same,Weight Change,P388 murine leukemia; [7],-0.2 Grams
same,% T/C,"P388 murine leukemia; 22 mg/kg, Days 1 and 9",164%
same,Weight Change,"P388 murine leukemia; 22 mg/kg, Days 1 and 9",1.8 Grams
same,% T/C,P388 murine leukemia; [8],203%
same,Weight Change,P388 murine leukemia; [8],0.6 Grams
same,% T/C,"P388 murine leukemia; 33 mg/kg, Days 1 and 9",169%
same,Weight Change,"P388 murine leukemia; 33 mg/kg, Days 1 and 9",0.8 Grams
same,% T/C,P388 murine leukemia; [9],212%
same,Weight Change,P388 murine leukemia; [9],-1.7 Grams
same,% T/C,"P388 murine leukemia; 50 mg/kg, Days 1 and 9",166%
same,Weight Change,"P388 murine leukemia; 50 mg/kg, Days 1 and 9",0.3 Grams
same,% T/C,"P388 murine leukemia; 53 mg/kg, Day 1 only",100%
same,% T/C,"P388 murine leukemia; 53 mg/kg, Days 1, 5, and 9",116%
same,Weight Change,"P388 murine leukemia; 53 mg/kg, Days 1, 5, and 9",2.9 Grams
same,% T/C,"P388 murine leukemia; 75 mg/kg, Days 1 and 9",181%
same,Weight Change,"P388 murine leukemia; 75 mg/kg, Days 1 and 9",-2.6 Grams
same,% T/C,"P388 murine leukemia; 80 mg/kg, Day 1 only",104%
same,% T/C,"P388 murine leukemia; 80 mg/kg, Days 1, 5, and 9",119%
same,Weight Change,"P388 murine leukemia; 80 mg/kg, Days 1, 5, and 9",1.3 Grams
same,% T/C,"P388 murine leukemia; 120 mg/kg, Day 1 only",113%
same,% T/C,"P388 murine leukemia; 120 mg/kg, Days 1, 5, and 9",154%
same,Weight Change,"P388 murine leukemia; 120 mg/kg, Days 1, 5, and 9",-2.5 Grams
same,% T/C,"P388 murine leukemia; 180 mg/kg, Day 1 only",12%
same,% T/C,"P388 murine leukemia; 180 mg/kg, Days 1, 5, and 9",9%
same,optimal dose regimen,"P388 murine leukemia; every three hours on Days 1, 5, and 9, minimal weight loss and maximum life span response",about 30 mg/kg/injection
same,patients with favorable responses,[1],two
same,patients with favorable responses,cancer of the pancreas,one
same,patients with favorable responses,salivary gland cancer,two
